According to patent publication US20230286973A1, “PROTEIN SECRETION INHIBITORS” (KEZAR LIFE SCIENCES, priority 2020, published 2023):

What was measured:
[1] = system: multiple myeloma cell line NCI-H929; experiment: H929 Cell Viability Assay; type: cell-based, human; settings: Homo sapiens, NCI-H929, 48 h, NCI-H929 cells, Celltiter-Glo
In short: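 NCI-H929 cells in RPMI 1640 with 10% FBS were treated with compound dilutions for 48 h at 37° C, 5% CO2. Viability was read by CellTiter-Glo luminescence. Undefined stereocentres denote stereoisomer mixtures.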

[2] = system: HER3-ss+4aa/Gaussia Luciferase; experiment: Dox-Induced Her3-ss-Gluc Assay; type: cell-based; settings: 24 hr Dox induction; 293FRT/TO cells; mean; read-out: 24 hr Dox Inducible Her3(ss + 4)Gluc 293FRT/TO: Mean IC50
In short: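 Stable Flp-In 293 T-REx cells carried a doxycycline-inducible HER3 signal sequence (+4 aa) fused to Gaussia luciferase. Cells were plated the day before the assay. Compound dilutions in DMSO/media containing doxycycline were then added, and plates were incubated at 37 °C, 5% CO2.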

[3] = system: PD1-ss+10aa/Gaussia Luciferase; experiment: Dox-Induced PD1-ss-Gluc Assay; type: cell-based; settings: 24 hr Dox induction; 293FRT/TO cells; mean; read-out: 24 hr Dox Inducible PD1ssGluc 293FRT/TO: Mean IC50
In short: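 Gaussia luciferase fused downstream of the PD1 signal peptide plus 10 residues was expressed on doxycycline induction in stably transfected Flp-In 293 T-REx cells. Compounds were added with doxycycline and incubated at 37 °C, 5% CO2.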

[4] = Liver Microsome Stability Assay (human); settings: human liver microsomes, with NADPH, 1.0 uM compound
Description: (§1) Stability of a compound was assessed in the presence of liver microsomes from various sources—mouse, rat, monkey and human liver microsomes. 1.0 uM compound, 0.4% DMSO in 0.1 M Potassium Phosphate with 1.0 mg/mL liver microsomes, were incubated at 37° C. with or without 1 mM NADPH. The samples were quenched at 0, and 30 minutes.

[5] = system: IL-2-FL/Gaussia Luciferase; experiment: Dox Induced IL2-FL-Gluc Assay; type: cell-based; settings: for IC50: 24 hr Dox induction, 293FRT/TO cells, mean, read-out: 24 hr Dox Inducible IL2FLGluc 293FRT/TO: Mean IC50; for 24 hr Dox Inducible IL2FLGluc 293FRT/TO: IL2/PD1: ratio of IL2FLGluc IC50 to PD1ssGluc IC50, '<=>' given where both are I.A.
In short: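 Stable Flp-In 293 T-REx cells carrying doxycycline-inducible full-length IL-2 (aa 1-153) fused to Gaussia luciferase, plated the day before assay. Compound dilutions added in medium containing doxycycline, incubated at 37 °C, 5% CO2. Undefined stereocentres mean data refer to stereoisomer mixtures.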

[6] = Liver Microsome Stability Assay (monkey); settings: monkey liver microsomes, with NADPH, 1.0 uM compound
Description: as §1

[7] = system: multiple myeloma cell line U266B1; experiment: U266 Cell Viability Assay; type: cell-based, human; settings: Homo sapiens, U-266, 48 h, U266B1 cells, Celltiter-Glo
In short: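 U266B1 multiple myeloma cells in RPMI 1640/10% FBS were treated with compound dilutions for 48 h at 37 °C, 5% CO2. Viability was measured by CellTiter-Glo luminescence; compounds drawn without stereochemistry were tested as stereoisomer mixtures.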

[8] = Liver Microsome Stability Assay (rat); settings: rat liver microsomes, with NADPH, 1.0 uM compound
Description: as §1

[9] = Liver Microsome Stability Assay (mouse); settings: mouse liver microsomes, with NADPH, 1.0 uM compound
Description: as §1

[10] = system: TNFα-FL/Gaussia Luciferase; experiment: Dox Induced TNFα-FL-Gluc Assay; type: cell-based; settings: for IC50: 24 hr Dox induction, 293FRT/TO cells, mean, read-out: 24 hr Dox Inducible TNFaFLGluc 293FRT/TO: Mean IC50; for 24 hr Dox Inducible TNFaFLGluc 293FRT/TO: TNF/PD1: ratio of TNFaFLGluc IC50 to PD1ssGluc IC50, '<=>' given where both are I.A.
In short: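 Flp-In 293 T-REx cells stably carrying doxycycline-inducible full-length TNFα (aa 1-233) fused to Gaussia luciferase. Plated the day before, then treated with compound dilutions in doxycycline-containing medium at 37° C, 5% CO2.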

SMILES	EC50 [1] [µM]	IC50 [2] [nM]	IC50 [3] [nM]	Liver Microsome Stability (Multiple Species): Human - % Remaining after 30 min w/NADPH [4] [%]	IC50 [5] [nM]	24 hr Dox Inducible IL2FLGluc 293FRT/TO: IL2/PD1 [5]	Liver Microsome Stability (Multiple Species): Monkey - % Remaining after 30 min w/NADPH [6] [%]	EC50 [7] [µM]	Liver Microsome Stability (Multiple Species): Rat - % Remaining after 30 min w/NADPH [8] [%]	Liver Microsome Stability (Multiple Species): Mouse - % Remaining after 30 min w/NADPH [9] [%]	IC50 [10] [µM]	24 hr Dox Inducible TNFaFLGluc 293FRT/TO: TNF/PD1 [10]
O=C(Nc1nc([C@H]2CCCN2c2ccccc2)cs1)c1cccn1Cc1ccc(F)cc1 [Compound C119, (R)-1-(4-fluorobenzyl)-N-(4-(1-phenylpyrrolidin-2-yl)thiazol-2-yl)-1H-pyrrole-2-carboxamide]	> 25	1510	2120	61.3	1620	0.76	23.4	> 25	49.6	42.4	> 25	>11.8
Cc1cccc(Cn2cccc2C(=O)Nc2nc([C@H]3CCCN3c3ccccc3)cs2)c1 [Compound C120, (R)-1-(3-methylbenzyl)-N-(4-(1-phenylpyrrolidin-2-yl)thiazol-2-yl)-1H-pyrrole-2-carboxamide]	> 25	1830	4420	62.8	2060	0.47	51.1	> 25	36.8	38	> 25	>5.66
O=C(Nc1nc([C@H]2CCCN2c2ccccc2)cs1)c1cccn1Cc1cccc(Br)c1 [Compound C121, (R)-1-(3-bromobenzyl)-N-(4-(1-phenylpyrrolidin-2-yl)thiazol-2-yl)-1H-pyrrole-2-carboxamide]	> 25	1210	2310	64.9	1330	0.58	44.2	> 25	50.2	52.1	> 25	>10.8
O=C(Nc1nc([C@H]2CCCN2c2ccccc2)cs1)c1cccn1Cc1cccc(Cl)c1 [Compound C122, (R)-1-(3-chlorobenzyl)-N-(4-(1-phenylpyrrolidin-2-yl)thiazol-2-yl)-1H-pyrrole-2-carboxamide]	> 25	1000	1080	75.8	1350	1.3	52.2	> 25	52.6	50.6	> 25	>23.3
O=C(Nc1nc([C@H]2CCCN2c2ccccc2)cs1)c1cccn1CC1CCC(F)(F)C1 (stereo partly drawn) [Compound C123, 1-((3,3-difluorocyclopentyl)methyl)-N-(4-((R)-1-phenylpyrrolidin-2-yl)thiazol-2-yl)-1H-pyrrole-2-carboxamide]	> 25	620	377	58.5	776	2.1	3.11	> 25	6.16	23.6	8.55	22.7
O=C(Nc1nc(/C=C/c2ncc(F)cc2F)cs1)c1cccn1CC1CCOCC1 [Compound D2, (E)-N-(4-(2-(3,5-difluoropyridin-2-yl)vinyl)thiazol-2-yl)-1-((tetrahydro-2H-pyran-4-yl)methyl)-1H-pyrrole-2-carboxamide]	> 23.9	1500	397	5.79	> 13500	>34	0.23	> 25	0.39	2.76	6.09	15.3
Cc1ccc(/C=C/c2csc(NC(=O)c3cccn3CC3CCOCC3)n2)nc1F [Compound D3, (E)-N-(4-(2-(6-fluoro-5-methylpyridin-2-yl)vinyl)thiazol-2-yl)-1-((tetrahydro-2H-pyran-4-yl)methyl)-1H-pyrrole-2-carboxamide]	10.2	2000	734	0.24	6660	9.1	0.09	> 17.8	0.26	0.46	> 25	>34.1
O=C(Nc1nc(/C=C/c2ncoc2C2CCCCC2)cs1)c1cccn1CC1CCOCC1 [Compound D4, (E)-N-(4-(2-(5-cyclohexyloxazol-4-yl)vinyl)thiazol-2-yl)-1-((tetrahydro-2H-pyran-4-yl)methyl)-1H-pyrrole-2-carboxamide]	> 25	10600	1040	5.39	> 25000	>24	1.35	> 25	1.86	29.8	> 25	>24.1
O=C(Nc1nc(/C=C/c2cn(C3CCCCC3)cn2)cs1)c1cccn1CC1CCOCC1 [Compound D5, (E)-N-(4-(2-(1-cyclohexyl-1H-imidazol-4-yl)vinyl)thiazol-2-yl)-1-((tetrahydro-2H-pyran-4-yl)methyl)-1H-pyrrole-2-carboxamide]	18.9	21400	776	0.18	13500	17	0.17	> 24.7	0.16	0.54	> 25	>32.2
CC(C)c1ccc(/C=C/c2csc(NC(=O)c3cccn3CC3CCOCC3)n2)nc1 [Compound D6, (E)-N-(4-(2-(5-isopropylpyridin-2-yl)vinyl)thiazol-2-yl)-1-((tetrahydro-2H-pyran-4-yl)methyl)-1H-pyrrole-2-carboxamide]	8.68	6200	595	0.03	> 25000	>42	0.04	12.3	0.06	0.09	> 25	>42.0
